Measurements published in patent US8247211B2, “Glycopeptide antibiotics” (American Cyanamid Company, priority 2001, dated 2012).
≈ marks a conversion by molar mass, not a printed value.

Key:
Enterococcus sp. = test: In vitro antibacterial evaluation: minimum inhibitory concentration (MIC), broth dilution method; type: cell-based; details: 18 hours at 35° C.
Procedure, shortened: (§1)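 First, organisms are seeded at 5×10^5 CFU/mL into Muller-Hinton II […]. Next, antibiotic is applied across 64-0.06 μg/mL by broth dilution (NCCLS M7-A2). Finally, the lowest inhibitory concentration is recorded as MIC.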

Streptococcus sp. = test: as above; type: cell-based; details: 18 hours at 35° C.
Procedure, shortened: as §1

Staphylococcus sp. = test: as above; type: cell-based; details: 18 hours at 35° C.
Procedure, shortened: as §1

Escherichia coli = test: as above; type: cell-based; details: Escherichia coli (GC 4560); 18 hours at 35° C.
Procedure, shortened: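 Inoculum: 5×10^5 CFU/mL. Range: 64-0.06 μg/mL. Medium: Muller-Hinton II […]; NCCLS M7-A2 broth dilution. Endpoint: lowest concentration inhibiting growth. Strains include methicillin-, penicillin- and/or vancomycin-resistant clinical isolates.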

[1] = tested on: Staphylococcus aureus-SMITH (GC 4543); test: Acute lethal infection in mice (ED50); type: in vivo; details: female CD-1 mice, intraperitoneal challenge, intravenous dose 30 min. after infection, 7 day survival ratios
Procedure, shortened: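 IP bacterial challenge, female CD-1 mice; inoculum lethal to untreated controls in 24-48 hr. IV dosing in saline or 5% dextrose 30 min post-infection, 5 mice/dose. ED50 from 7-day survival, 3 tests pooled.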

[2] = broth dilution, inoculum 5×10^5 CFU/mL

For `CC(c1ccccc1)C1NC(=O)CNC(=O)C(CO)NC(=O)C(C(O)C2CNC(=N)N2C2OC(CO)C(O)C(O)C2O)NC(=O)C(C(O)C2CNC(=N)N2)NC(=O)C(Cc2ccc(OC3OC(CO)C(OC4OC(COCc5ccc(OCc6ccccc6)cc5)C(O)C(O)C4O)C(O)C3O)cc2)NC1=O` (stereo not drawn) [Example 231, Cyclo[glycyl-β-methylphenylalanyl-O-[4-O-[6-O-[4-(phenylmethoxy)benzyl]hexopyranosyl]-hexopyranosyl)tyrosyl-3-(2-iminoimidazolidin-4-yl)seryl-3-(3-hexopyranosyl-2-iminoimidazolidin-4-yl)serylseryl]], the “MIC Enterococcus avium (GC 4558)” value (Enterococcus sp.; Enterococcus avium (GC 4558)) was 2 to 4 µg/mL, the “MIC Enterococcus faecalis (ATCC 29212)” value (Enterococcus sp.; Enterococcus faecalis (ATCC 29212)) was 4 µg/mL (≈ 2.68 µM) and the “MIC Enterococcus faecalis (GC 2242)” value (Enterococcus sp.; Enterococcus faecalis (GC 2242)) was 4 µg/mL (≈ 2.68 µM). The “MIC Enterococcus faecalis (GC 2691)” value (Enterococcus sp.; Enterococcus faecalis (GC 2691)) was 2 to 4 µg/mL, the “MIC Enterococcus faecalis (GC 3059)” value (Enterococcus sp.; Enterococcus faecalis (GC 3059)) was 2 to 4 µg/mL and the “MIC Enterococcus faecalis (GC 4552)” value (Enterococcus sp.; Enterococcus faecalis (GC 4552)) was 4 µg/mL (≈ 2.68 µM). For the same compound, the “MIC Enterococcus faecalis (GC 4553)” value (Enterococcus sp.; Enterococcus faecalis (GC 4553)) was 4 µg/mL (≈ 2.68 µM), the “MIC Enterococcus faecalis (GC 4554)” value (Enterococcus sp.; Enterococcus faecalis (GC 4554)) was 4 µg/mL (≈ 2.68 µM) and the “MIC Enterococcus faecalis (GC 6189)” value (Enterococcus sp.; Enterococcus faecalis (GC 6189)) was 2 to 4 µg/mL. The “MIC Enterococcus faecium (GC 2243)” value (Enterococcus sp.; Enterococcus faecium (GC 2243)) was 4 µg/mL (≈ 2.68 µM), the “MIC Enterococcus faecium (GC 4556)” value (Enterococcus sp.; Enterococcus faecium (GC 4556)) was 4 µg/mL (≈ 2.68 µM) and the “MIC Enterococcus faecium (GC 4557)” value (Enterococcus sp.; Enterococcus faecium (GC 4557)) was 1 to 2 µg/mL. The “MIC Enterococcus avium (GC 4558)” value (Enterococcus sp.; [2]) was 2 to 4 µg/mL, the “MIC Enterococcus faecalis (ATCC 29212)” value (Enterococcus sp.; [2]) was 4 µg/mL (≈ 2.68 µM) and the “MIC Enterococcus faecalis (GC 2242)” value (Enterococcus sp.; [2]) was 4 µg/mL (≈ 2.68 µM). The “MIC Enterococcus faecalis (GC 2691)” value (Enterococcus sp.; [2]) was 2 to 4 µg/mL, the “MIC Enterococcus faecalis (GC 3059)” value (Enterococcus sp.; [2]) was 2 to 4 µg/mL and the “MIC Enterococcus faecalis (GC 4552)” value (Enterococcus sp.; [2]) was 4 µg/mL (≈ 2.68 µM). The “MIC Enterococcus faecalis (GC 4553)” value (Enterococcus sp.; [2]) was 4 µg/mL (≈ 2.68 µM), the “MIC Enterococcus faecalis (GC 4554)” value (Enterococcus sp.; [2]) was 4 µg/mL (≈ 2.68 µM) and the “MIC Enterococcus faecalis (GC 6189)” value (Enterococcus sp.; [2]) was 2 to 4 µg/mL. For the same compound, the “MIC Enterococcus faecium (GC 2243)” value (Enterococcus sp.; [2]) was 4 µg/mL (≈ 2.68 µM), the “MIC Enterococcus faecium (GC 4556)” value (Enterococcus sp.; [2]) was 4 µg/mL (≈ 2.68 µM) and the “MIC Enterococcus faecium (GC 4557)” value (Enterococcus sp.; [2]) was 1 to 2 µg/mL. For the same compound, the “MIC Streptococcus agalactiae (GC 4564)” value (Streptococcus sp.; Streptococcus agalactiae (GC 4564)) was less than 0.06 µg/mL, the “MIC Streptococcus pneumoniae (ATCC 6301)” value (Streptococcus sp.; Streptococcus pneumoniae (ATCC 6301)) was less than 0.06 µg/mL and the “MIC Streptococcus pneumoniae (GC 1894)” value (Streptococcus sp.; Streptococcus pneumoniae (GC 1894)) was less than 0.06 µg/mL. The “MIC Streptococcus pneumoniae (GC 4565)” value (Streptococcus sp.; Streptococcus pneumoniae (GC 4565)) was less than 0.06 µg/mL, the “MIC Streptococcus pyogenes (GC 4563)” value (Streptococcus sp.; Streptococcus pyogenes (GC 4563)) was less than 0.06 µg/mL and the “MIC Streptococcus agalactiae (GC 4564)” value (Streptococcus sp.; [2]) was less than 0.06 µg/mL. The “MIC Streptococcus pneumoniae (ATCC 6301)” value (Streptococcus sp.; [2]) was less than 0.06 µg/mL, the “MIC Streptococcus pneumoniae (GC 1894)” value (Streptococcus sp.; [2]) was less than 0.06 µg/mL and the “MIC Streptococcus pneumoniae (GC 4565)” value (Streptococcus sp.; [2]) was less than 0.06 µg/mL. For the same compound, the “MIC Streptococcus pyogenes (GC 4563)” value (Streptococcus sp.; [2]) was less than 0.06 µg/mL, the “MIC Coagulase Negative Staphylococcus (GC 4547)” value (Staphylococcus sp.; Coagulase Negative Staphylococcus (GC 4547)) was 1 to 2 µg/mL and the “MIC Coagulase Negative Staphylococcus (GC 4548)” value (Staphylococcus sp.; Coagulase Negative Staphylococcus (GC 4548)) was 0.5 to 1 µg/mL. For the same compound, the “MIC Coagulase Negative Staphylococcus (GC 4551)” value (Staphylococcus sp.; Coagulase Negative Staphylococcus (GC 4551)) was 1 µg/mL (≈ 0.67 µM), the “MIC Coagulase Negative Staphylococcus (GC 6257)” value (Staphylococcus sp.; Coagulase Negative Staphylococcus (GC 6257)) was 0.5 to 1 µg/mL and the “MIC Staphylococcus aureus (ATCC 29213)” value (Staphylococcus sp.; Staphylococcus aureus (ATCC 29213)) was 1 to 4 µg/mL. The “MIC Staphylococcus aureus (GC 1131)” value (Staphylococcus sp.; Staphylococcus aureus (GC 1131)) was 2 to 4 µg/mL, the “MIC Staphylococcus aureus (GC 3051)” value (Staphylococcus sp.; Staphylococcus aureus (GC 3051)) was 1 to 2 µg/mL and the “MIC Staphylococcus aureus (GC 3053)” value (Staphylococcus sp.; Staphylococcus aureus (GC 3053)) was 1 to 2 µg/mL. For the same compound, the “MIC Staphylococcus aureus (GC 4541)” value (Staphylococcus sp.; Staphylococcus aureus (GC 4541)) was 1 to 4 µg/mL, the “MIC Staphylococcus aureus (GC 4542)” value (Staphylococcus sp.; Staphylococcus aureus (GC 4542)) was 2 to 4 µg/mL and the “MIC Staphylococcus aureus (GC 4544)” value (Staphylococcus sp.; Staphylococcus aureus (GC 4544)) was 2 to 4 µg/mL. For the same compound, the “MIC Staphylococcus aureus (GC 4545)” value (Staphylococcus sp.; Staphylococcus aureus (GC 4545)) was 1 to 4 µg/mL, the “MIC Staphylococcus aureus-SMITH (GC 4543)” value (Staphylococcus sp.; Staphylococcus aureus-SMITH (GC 4543)) was 2 µg/mL (≈ 1.34 µM) and the “MIC Staphylococcus haemolyticus (GC 4546)” value (Staphylococcus sp.; Staphylococcus haemolyticus (GC 4546)) was 1 to 4 µg/mL. For the same compound, the “MIC Escherichia coli (GC 4560)” value (Escherichia coli) was 0.5 to 2 µg/mL and the median effective dose (ED50), Staphylococcus aureus-SMITH (GC 4543) [1] was 0.25 mg/kg.
